For the assay, the system named is T1, ALS (acetolactate synthase).
T1 construct: native enzyme in leaf extract, not purified
The assay can be described thus: in vitro ALS activity of leaf extract, colorimetric acetoin ([…] nm). In kind it is biochemical, Silene conoidea. Conditions: leaf extract of susceptible population; read-out: I50 (μM) ^c.

SMILES strings stand for the structures.

As to `COC(=O)c1ccccc1S(=O)(=O)NC(=O)N(C)c1nc(C)nc(OC)n1` [tribenuron-methyl, methyl 2-[[[[N-(4-methoxy-6-methyl-1,3,5triazin-2-yl)methyl-amino]carbonyl]amino]sulfonyl]benzoate], the IC50 came out at 11.6 ± 1 µM.

Source of the values: paper PMC9692542, “First Report of the Molecular Mechanism of Resistance to Tribenuron-Methyl in Silene conoidea L” (Plants, 2022).
